Where two headings read alike, the source gives them in different places.
Tests used:
[1] = logP (acidic, pH 2.3, and neutral); type: physicochemical; settings: for logP: read-out: logP neutr.
[2] = test system: Erysiphe graminis f. sp. hordei; assay: Erysiphe test (barley) / protective; type: in vivo; settings: Blumeria graminis, 168 h, 500 ppm active ingredient, evaluated 7 days after inoculation, 0 % = control, 100 % = no infestation, read-out: Wirkungsgrad
Description: (§1) Zur Herstellung einer zweckmäßigen Wirkstoffzubereitung vermischt man 1 Gewichtsteil Wirkstoff mit den angegebenen Mengen Lösungsmittel und Emulgator und verdünnt das Konzentrat mit Wasser auf die gewünschte Konzentration.
Zur Prüfung auf protektive Wirksamkeit bespritzt man junge Getreidepflanzen mit der Wirkstoffzubereitung in der angegebenen Aufwandmenge. 1 Tag nach der Behandlung werden die Pflanzen mit Sporen von Erysiphe graminis f. sp. hordei inokuliert. Anschließend werden die Pflanzen in einem Gewächshaus bei 70 % relativer Luftfeuchtigkeit und einer Temperatur von 18°C aufgestellt.
7 Tage nach der Inokulation erfolgt die Auswertung. Dabei bedeutet 0 % ein Wirkungsgrad, der demjenigen der Kontrolle entspricht, während ein Wirkungsgrad von 100 % bedeutet, daß kein Befall beobachtet wird.

Puccinia recondita = assay: Puccinia test (wheat) / protective; type: in vivo; settings: 240 h, 1000 ppm active ingredient, protective spray, evaluated 10 days after inoculation, 0 % = control, 100 % = no infestation, read-out: Wirkungsgrad
Description: as §1
Zur Prüfung auf protektive Wirksamkeit werden junge Pflanzen mit der Wirkstoffzubereitung in der angegebenen Aufwandmenge besprüht. Nach Antrocknen des Spritzbelages werden die Pflanzen mit einer Konidiensuspension von Puccinia recondita besprüht. Die Pflanzen verbleiben 48 Stunden bei 20°C und 100 % relativer Luftfeuchtigkeit in einer Inkubationskabine.
Die Pflanzen werden dann in einem Gewächshaus bei einer Temperatur von ca. 20°C und einer relativen Luftfeuchtigkeit von 80 % aufgestellt, um die Entwicklung von Rostpusteln zu begünstigen.
10 Tage nach der Inokulation erfolgt die Auswertung. Dabei bedeutet 0 % ein Wirkungsgrad, der demjenigen der Kontrolle entspricht, während ein Wirkungsgrad von 100 % bedeutet, daß kein Befall beobachtet wird.

Uromyces appendiculatus = assay: Uromyces test (bean) / protective; type: in vivo; settings: 10ppm active ingredient, evaluated 10 days after inoculation, 0 % = control, 100 % = no infestation
Description: as §1
Zur Prüfung auf protektive Wirksamkeit werden junge Pflanzen mit der Wirkstoffzubereitung in der angegebenen Aufwandmenge besprüht. Nach Antrocknen des Spritzbelages werden die Pflanzen mit einer wäßrigen Sporensuspension des Bohnenrosterregers Uromyces appendiculatus inokuliert und verbleiben dann 1 Tag bei ca. 20°C und 100% relativer Luftfeuchtigkeit in einer Inkubations-kabine.
Die Pflanzen werden dann im Gewächshaus bei ca. 21°C und einer relativen Luftfeuchtigkeit von ca. 90% aufgestellt.
(§2) 10 Tage nach der Inokulation erfolgt die Auswertung. Dabei bedeutet 0% ein Wirkungsgrad, der demjenigen der Kontrolle entspricht, während ein Wirkungsgrad von 100% bedeutet, daß kein Befall beobachtet wird.

Sphaerotheca fuliginea = assay: Sphaerotheca test (cucumber) / protective; type: in vivo; settings: Podosphaera fuliginea, 168 h, 100ppm active ingredient, evaluated 7 days after inoculation, 0 % = control, 100 % = no infestation, read-out: Wirkungsgrad
Description: as §1
Zur Prüfung auf protektive Wirksamkeit werden junge Pflanzen mit der Wirkstoffzubereitung in der angegebenen Aufwandmenge besprüht. Nach Antrocknen des Spritzbelages werden die Pflanzen mit einer wäßrigen Sporensuspension von Sphaerotheca fuliginea inokuliert. Die Pflanzen werden dann bei ca. 23°C und einer relativen Luftfeuchtigkeit von ca. 70% im Gewächshaus aufgestellt.
7 Tage nach der Inokulation erfolgt die Auswertung. Dabei bedeutet 0% ein Wirkungsgrad, der demjenigen der Kontrolle entspricht, während ein Wirkungsgrad von 100% bedeutet, daß kein Befall beobachtet wird.

Podosphaera leucotricha = assay: Podosphaera test (apple) / protective; type: in vivo; settings: 240 h, 100 ppm active ingredient, evaluated 10 days after inoculation, 0 % = control, 100 % = no infestation, read-out: Wirkungsgrad
Description: as §1
Zur Prüfung auf protektive Wirksamkeit werden junge Pflanzen mit der Wirkstoffzubereitung in der angegebenen Aufwandmenge besprüht. Nach Antrocknen des Spritzbelages werden die Pflanzen mit einer wäßrigen Sporensuspension des Apfelmehltauerregers Podosphaera leucotricha inokuliert. Die Pflanzen werden dann im Gewächshaus bei ca. 23°C und einer relativen Luftfeuchtigkeit von ca. 70% aufgestellt.
as §2

Leptosphaeria nodorum = Leptosphaeria nodorum test (wheat) / protective; type: in vivo; settings: 500 ppm active ingredient, evaluated 12-14 days after inoculation, 0 % = control, 100 % = no infestation
Description: as §1
Zur Prüfung auf protektive Wirksamkeit bespritzt man junge Weizenpflanzen mit der Wirkstoffzubereitung in der angegebenen Aufwandmenge. 1 Tag nach der Behandlung werden die Pflanzen mit einer wäßrigen Sporensuspension von Leptosphaeria nodorum inokuliert und verbleiben dann 48h bei 100% rel. Luftfeuchte und 20°C. Anschließend werden die Pflanzen in einem Gewächshaus bei 80 % rel. Luftfeuchtigkeit und einer Temperatur von 22°C aufgestellt.
12-14 Tage nach der Inokulation erfolgt die Auswertung. Dabei bedeutet 0 % ein Wirkungsgrad, der demjenigen der Kontrolle entspricht, während ein Wirkungsgrad von 100 % bedeutet, dass kein Befall beobachtet wird.

[3] = pH 2.3, acidic, read-out: logP sauer
[4] = pH 2, pH 2,3, read-out: log P (pH 2,3)

Structure (SMILES) | logP ([1]; neutral) | logD [1, 3] | pest or weed control at 500 ppm [2] [%] | pest or weed control at 1000 ppm (Puccinia recondita) [%] | further results
CCCN(C)C=Nc1cc(C)c(Oc2cc(F)cc(Br)c2)cc1C [Nr. 14] | 7.4 | 2.37 | ≥ 70 | ≥ 70 | 
CCN(C)C=Nc1cc(C)c(Oc2ccc(F)c(F)c2)cc1C [Nr. 2] | 6.2 | 2.37 |  |  | 
CCN(C)C=Nc1cc(C)c(Oc2ccc(F)c(Br)c2)cc1C [Nr. 23] | 5.7 | 2.29 |  | ≥ 70 | Wirkungsgrad (Uromyces appendiculatus): ≥ 70%; pest or weed control at 100 ppm (Sphaerotheca fuliginea): ≥ 70%
CCCN(C)C=Nc1cc(C)c(Oc2cc(F)cc(Br)c2)cc1C [Nr. 28] |  |  |  |  | logP sauer ([1]; acidic): 2,91; logP neutr. ([1]; neutral): 6,9
Cc1cc(Oc2cc(F)cc(I)c2)c(C)cc1N=CN1CCCC1 [Nr. 22] | 6.6 | 2.46 |  |  | 
CCCN(C)C=Nc1cc(C)c(Oc2cc(F)cc(I)c2)cc1C [Nr. 20] | 6.6 | 2.61 |  |  | 
Cc1cc(Oc2cc(Cl)cc(Br)c2)c(C)cc1N=CN(C)C(C)C [Nr. 7] | 6.8 | 2.7 | ≥ 70 | ≥ 70 | Wirkungsgrad (Uromyces appendiculatus): ≥ 70%; pest or weed control at 100 ppm (Podosphaera leucotricha): ≥ 70%; pest or weed control at 100 ppm (Sphaerotheca fuliginea): ≥ 70%
CCN(C)C=Nc1cc(C)c(Oc2cc(Br)cc(Br)c2)cc1C [Nr. 4] | 6 | 2.5 | ≥ 70 | ≥ 70 | pest or weed control at 100 ppm (Podosphaera leucotricha): ≥ 70%; pest or weed control at 100 ppm (Sphaerotheca fuliginea): ≥ 70%
Cc1cc(Oc2ccc(Cl)c(I)c2)c(C)cc1N=CN1CCCCC1 [Nr. 26] |  | 2.52 |  |  | Wirkungsgrad (Leptosphaeria nodorum): ≥ 70%
CCN(C)C=Nc1cc(C)c(Oc2ccc(Cl)c(I)c2)cc1C [Nr. 25] |  | 2.29 |  | ≥ 70 | Wirkungsgrad (Leptosphaeria nodorum): ≥ 70%; pest or weed control at 100 ppm (Podosphaera leucotricha): ≥ 70%
CCN(C)C=Nc1cc(C)c(Oc2ccc(Cl)c(Br)c2)cc1C [Nr. 15] | 6.1 | 2.23 |  | ≥ 70 | Wirkungsgrad (Leptosphaeria nodorum): ≥ 70%
Cc1cc(Oc2ccc(Cl)c(Br)c2)c(C)cc1N=CN1CCCC1 [Nr. 18] | 6.6 | 2.56 |  |  | 
Cc1cc(Oc2cc(F)cc(Br)c2)c(C)cc1N=CN1CCCC1 [Nr. 13] | 5.7 | 2.37 | ≥ 70 | ≥ 70 | 
Cc1cc(Oc2ccc(Cl)c(Br)c2)c(C)cc1N=CN1CCCCC1 [Nr. 16] | 6.9 | 2.66 |  | ≥ 70 | 
CCN(C)C=Nc1cc(C)c(Oc2ccc(Br)c(I)c2)cc1C [Nr. 27] | 6.1 | 2.67 |  |  | Wirkungsgrad (Leptosphaeria nodorum): ≥ 70%
CCN(C)C=Nc1cc(C)c(Oc2cc(F)cc(I)c2)cc1C [Nr. 19] |  | 2.4 |  | ≥ 70 | 
Cc1cc(Oc2cc(Br)cc(Br)c2)c(C)cc1N=CN(C)C(C)C [Nr. 5] | 6.4 | 2.62 | ≥ 70 | ≥ 70 | 
Cc1cc(Oc2cc(F)cc(Br)c2)c(C)cc1N=CN1CCCCC1 [Nr. 12] | 6.5 | 2.55 | ≥ 70 | ≥ 70 | 
Cc1cc(Oc2ccc(Cl)c(I)c2)c(C)cc1N=CN(C)C(C)C [Nr. 24] | 6.2 | 2.4 |  | ≥ 70 | Wirkungsgrad (Leptosphaeria nodorum): ≥ 70%; Wirkungsgrad (Uromyces appendiculatus): ≥ 70%; pest or weed control at 100 ppm (Podosphaera leucotricha): ≥ 70%; pest or weed control at 100 ppm (Sphaerotheca fuliginea): ≥ 70%
Cc1cc(Oc2cc(F)cc(Br)c2)c(C)cc1N=CN1CC(C)OC(C)C1 (centres unmarked) [Nr. 29] | 5.8 | 2.59 |  |  | 
CCCN(C)C=Nc1cc(C)c(Oc2cc(F)cc(Cl)c2)cc1C [Nr. 11] | 6.1 | 2.39 | ≥ 70 | ≥ 70 | pest or weed control at 100 ppm (Podosphaera leucotricha): ≥ 70%; pest or weed control at 100 ppm (Sphaerotheca fuliginea): ≥ 70%
Cc1cc(Oc2cc(F)cc(Cl)c2)c(C)cc1N=CN1CCCCC1 [Nr. 9] | 6.3 | 2.42 | ≥ 70 | ≥ 70 | pest or weed control at 100 ppm (Podosphaera leucotricha): ≥ 70%; pest or weed control at 100 ppm (Sphaerotheca fuliginea): ≥ 70%
Cc1cc([N+](=O)[O-])c(C)cc1Oc1ccc(Cl)c(Cl)c1 [4-(3,4-Dichlorphenoxy)-2,5-dimethylnitrobenzol] |  |  |  |  | logD [1, 4]: 5.19
Cc1cc(Oc2cc(F)cc(Cl)c2)c(C)cc1N=CN1CCCC1 [Nr. 10] | 5.6 | 2.26 |  |  | 
Cc1cc(Oc2ccc(Cl)c(Cl)c2)c(C)cc1N [4-(3,4-Dichlorphenoxy)-2,5-dimethylanilin] |  |  |  |  | logD [1, 4]: 3.51
CCN(C)C=Nc1cc(C)c(Oc2cc(Cl)cc(Br)c2)cc1C [Nr. 6] | 6.4 | 2.56 | ≥ 70 | ≥ 70 | pest or weed control at 100 ppm (Podosphaera leucotricha): ≥ 70%; pest or weed control at 100 ppm (Sphaerotheca fuliginea): ≥ 70%
Cc1cc(Oc2cc(F)cc(I)c2)c(C)cc1N=CN1CCCCC1 [Nr. 21] | 6.8 | 2.6 |  | ≥ 70 | Wirkungsgrad (Leptosphaeria nodorum): ≥ 70%
CCN(C)C=Nc1cc(C)c(Oc2cc(F)cc(Cl)c2)cc1C [Nr. 8] | 5.6 | 2.21 | ≥ 70 | ≥ 70 | 
CCN(C)C=Nc1cc(C)c(Oc2ccc(Cl)c(Cl)c2)cc1C [Nr. 30, N-Ethyl-N-methyl-N'-[4-(3,4-dichlorphenoxy)-2,5-dimethylphenyl]formamidin] |  |  |  |  | logD [1, 4]: 2.48
CCCN(C)C=Nc1cc(C)c(Oc2ccc(Cl)c(Br)c2)cc1C [Nr. 17] | 6.6 | 2.64 |  |  | 

From patent EP1969933A1, “Di-halogen phenoxy phenylamidines and their use as fungicides” (Bayer CropScience AG, priority 2007, dated 2008)
